Laboratory results as given in US20060034823A1, “Method of production and use of crotoxin as an analgesic” (priority 2004, published 2006).
“And” between values parts separate entries of the source, which are not always exact repeats. Equal entries are not always repeated. Structures can show the parent of a compound that is named as a salt. Where two headings read alike, the source gives them in different places.

Legend:
[1] = test system: pain response in mice induced by Hot Plate; format: in vivo, Kunming mice; details: for Time lapse before pain response: Dolantin 40000 μg/kg ip; for Pain threshold, Baseline: before drugs; for Pain threshold, After drug administration: crotoxin 44.3 μg·kg−1; for Pain thresholds: Acetylsalicylic acid 400 mg·kg−1
[2] = in vivo; cited from earlier work
[3] = test system: acetic acid writhing response in mice; assay: animal or person; format: in vivo, Kunming mice
Description: In the hot-plate test, a animal is positioned on a hot plate and is exposed to a standard heat source, and the time that the animal voluntarily endures the heat, prior to licking its paws, is recorded. In the acid-writhing test, the animal is injected into the intraperitoneal cavity and results in a writhing response. For the tail-flick test the animal's tail is subjected to heat or electrical stimulus and the time taken for the animal to remove its tail away from the noxious stimulus is recorded. Analgesics, particularly opioid analgesics, will prolong these times relative to controls.
The mice were randomly divided into 5 groups (n=10 in each group): saline control, acetylsalicylic acid 400 mg/kg^−1, crotoxin 66.5, 44.3, or 29.5 mcg.kg^−1 −1. Pain threshold was measured 3 h after drug administration.
The mice were randomly divided into 2 groups (n=10 in each group): saline control and crotoxin 0.3 mcg.kg^−1 −1. The effects of crotoxin on pain threshold were measured 1 hour after crotoxin or saline administration.
The mice were randomly divided into 4 groups (n=10 in each group): saline control, crotoxin 44.3 mcg.kg^−1 −1, acetylsalicylic acid (Ace) 300 mg/kg^−1, and crotoxin+acetylsalicylic acid. Acetylsalicylic acid 300 mg/kg^−1 (im) and crotoxin 44.3 mcg.kg^−1 −1 (im) were administrated at the same time. Pain threshold was determined 2 h after crotoxin administration.

animal models of pain = assay: Crotamine in animal models of pain; format: in vivo; details: applicant's own studies vs published observations
Description: The analgesic effect of snake venom proteins has been known since antiquity and several authors have pointed out the efficiency of the administration of crude cobra or rattlesnake venoms in the treatment of trigeminal neuralgias, tabetic and pain caused by tumors. In the cases of tumoral pains, the patients could be maintained without the administration of morphine in 70% of the cases. Obviously, at the time, crude venoms were employed without even an adequate knowledge of the source or mechanism. Sometimes venoms from cobras captured in India or South Africa were employed indistinctly (see, Haast, U.S. Pat. No. 4,341,762). […] With respect to crotamine, it was assumed that this represented the anti-nociceptive component of Crotalus durissus terrificus venom.

## CCOC(=O)C1(c2ccccc2)CCN(C)CC1 [Dolantin, Meperidine hydrochloride]
[1]; 30 min after drug, hydrochloride
  Time lapse before pain response: 56 s and 56.14 s
[1]; 60 min after drug
  Time lapse before pain response: 55.49 s
[1]; 90 min after drug, hydrochloride
  Time lapse before pain response: 36 s and 36.36 s
[1]; 120 min after drug, hydrochloride
  Time lapse before pain response: 34 s and 34.03 s
[1]; Pre-drug, hydrochloride
  Time lapse before pain response: 13.2 s and 13.20 s
[2]
  analgesic potency relative to morphine: one-tenth as potent an analgesic as morphine
  duration: 2 to 4 h
  onset of activity: 10 to 45 min

## CN1[C@@H]2CC[C@H]1C[C@@H](OC(=O)C(CO)c1ccccc1)C2 (stereo partly shown) [Atropine, atropine]
[1]; atropine 0.5 mg/kg (im)
  effect of atropine alone on the pain threshold: no significant effect
[1]; atropine study
  Pain threshold, Baseline: 16.87 ± 3.10 s
[1]; atropine 0.5 mg·kg−1 or NS (im) 1.5 h after crotoxin, determined 1.5 h after atropine
  Pain threshold, After drug administration: 18.46 ± 3.25 s

## CC(=O)Oc1ccccc1C(=O)O [Acetylsalicylic acid, acetylsalicylic acid]
[1]; 1 h after administration
  Pain thresholds: 28.12 ± 6.95 s
[1]; 2 h after administration
  Pain thresholds: 24.50 ± 14.14 s
[1]; 3 h after administration
  Pain thresholds: 26.22 ± 14.32 s
[1]; Baseline
  Pain thresholds: 17.36 ± 2.72 s
[3]; Acetylsalicylic acid 400 mg·kg−1, 3 h after drug administration
  The number of writhings after administration: 8.80 ± 6.36 times/10 min
[3]; Mus musculus, 3 h, read-out: Percentage inhibition compared with control group
  inhibition at 400 mg/kg: 70.1%
[3]; acetylsalicylic acid 300 mg/kg (ip)
  effect on the analgesic effects of crotoxin: significantly enhanced
[3]; acetylsalicylic acid 300 mg/kg, crotoxin 44.3 mcg/kg, given at the same time
  analgesic effect, acetylsalicylic acid study: significant analgesic effects
[3]; crotoxin 44.3 μg·kg−1 and acetylsalicylic acid (table: 0.3 mg·kg−1; text: 300 mg/kg) given at the same time, 2 h after crotoxin
  The number of writhings: 12.13 ± 9.04 times/10 min

## crotamine (YKQCHKKGGHCFPKEKICLPPSSDFGKMDCRWRWKCCKKGSG; UniProt Q9PWF3 23-64, looked up)
Animal models of pain
  antinociceptive properties: failed to confirm these published observations

## C=CCN1CC[C@]23c4c5ccc(O)c4O[C@H]2C(=O)CC[C@@]3(O)[C@H]1C5 [Naloxone, Naloxone hydrochloride]
[1]; naloxone 3 mg·kg−1 or NS (i.p.) 2.5 hours after crotoxin, determined 30 minutes after naloxone
  Pain threshold, After drug administration: 19.04 ± 4.88 s
[1]; naloxone 3 mg/kg (ip)
  effect of naloxone alone on the pain threshold: no significant influence
[1]; naloxone (ip)
  effect on the analgesia induced by crotoxin: had no effect
[1]; naloxone study
  Pain threshold, Baseline: 16.97 ± 3.64 s
